“Also recorded” adds a separate entry of the source.

These results are taken from US20240174605A1, “ARYLSULFONAMIDES AS OREXIN RECEPTOR AGONISTS” (RESEARCH TRIANGLE INSTITUTE, priority 2021, published 2024).

The target in one data set is T1, human OX2 receptor (Homo sapiens, UniProt O43614).
T1 construct: host or cells: CHO RD-HGA16 cells
T1 sequence (O43614 1-444): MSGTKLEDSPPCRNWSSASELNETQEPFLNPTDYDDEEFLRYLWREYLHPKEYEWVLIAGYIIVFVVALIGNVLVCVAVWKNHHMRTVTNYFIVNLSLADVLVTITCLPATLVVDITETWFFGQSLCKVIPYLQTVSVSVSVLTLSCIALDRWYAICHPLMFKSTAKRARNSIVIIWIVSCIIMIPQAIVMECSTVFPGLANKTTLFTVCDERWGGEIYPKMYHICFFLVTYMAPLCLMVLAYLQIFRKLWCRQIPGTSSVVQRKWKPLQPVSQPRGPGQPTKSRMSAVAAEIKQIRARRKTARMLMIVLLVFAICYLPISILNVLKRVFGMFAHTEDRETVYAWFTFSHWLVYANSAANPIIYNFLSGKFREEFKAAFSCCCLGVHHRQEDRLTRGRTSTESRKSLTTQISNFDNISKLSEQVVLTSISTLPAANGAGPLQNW
In words: OX2R calcium mobilization assay. The format is cell-based. The note with it: Table 10. As for the experimental part:
(§1) Activity of the target compounds at the human OX1 and OX2 receptors was determined utilizing CHO RD-HGA16 cells (Molecular Devices) engineered to stably express either the human OX1 or the human OX2 receptor. Cells were maintained in Ham's F12 supplemented with 10% fetal bovine serum, 100 units of penicillin and streptomycin, and 100 μg/mL normocin™. To conduct the assay, cells were plated at 25,000 cells/well and incubated overnight at 37° C., 5% CO2. The next day, cells were washed with assay buffer and loaded with Calcium 5 dye (Molecular Devices). After 45 minutes, cells were pretreated with a 9% DMSO solution for 15 minutes.
(§2) All of the synthesized compounds were characterized for their agonist potencies in the calcium mobilization assays using CHO cells overexpressing either the OX1R or OX2R. Reference is made to German, N. A.; Decker, A. M.; Gilmour, B. P.; Thomas, B. F.; Zhang, Y., Truncated Orexin Peptides: Structure-Activity Relationship Studies.

The nature of data set [1]: Aqueous solubility at pH 2. It counts as physicochemical. As to conditions: aqueous medium at pH 2, pH 2, simulated gastric fluid. From the text: (§3) The main structural difference is the pyridyl group connected to the sulfonamide in RTIOXA-47, as compared to the other 3 compounds. The replacement of a phenyl group with a pyridyl reduced the electron density of this aromatic ring.

A short description of data set [2]: Metabolic stability in rat liver microsomes (RLM). As to conditions: for metabolic stability in rat liver microsomes, in words: RLM; for half-life: rat, rat liver microsomes, read-out: t1/2 (RLM). It counts as in vitro ADME.
From the text: as §3
(Microsomes from liver hold many membrane-bound enzymes, among them those of drug oxidation.)

The nature of the next data set: Half-life in vivo. The note with it: read-out: t1/2 (in vivo) (converted).
A further data set has as its target T2, OX1R (Homo sapiens, UniProt O43613).
T2 sequence (O43613 1-425): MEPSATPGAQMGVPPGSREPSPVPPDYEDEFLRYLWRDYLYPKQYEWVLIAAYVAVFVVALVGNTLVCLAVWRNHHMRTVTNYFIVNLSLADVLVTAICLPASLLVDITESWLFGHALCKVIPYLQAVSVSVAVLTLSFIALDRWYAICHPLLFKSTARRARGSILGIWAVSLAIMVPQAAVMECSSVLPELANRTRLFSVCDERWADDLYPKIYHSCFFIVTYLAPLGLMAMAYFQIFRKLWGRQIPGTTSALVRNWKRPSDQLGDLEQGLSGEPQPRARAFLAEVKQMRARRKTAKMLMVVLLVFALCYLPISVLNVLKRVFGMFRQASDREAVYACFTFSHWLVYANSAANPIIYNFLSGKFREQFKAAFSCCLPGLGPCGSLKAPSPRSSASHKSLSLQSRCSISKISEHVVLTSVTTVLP
Briefly: OX1R calcium mobilization assay. The format is cell-based. Details: host or cells: CHO RD-HGA16 cells. The note with it: Table 10. As for the experimental part:
as §1, §2
In general terms: Calcium flux is commonly read through the fluorescence of an indicator in the cells.

A further data set has as its target σ1 (Homo sapiens, UniProt Q99720). In words: Target selectivity: σ1. The format is binding.
A further data set relates to wild-type mice. As to conditions: 40 mg/kg i.p., salt form; cited from earlier work.

Sequence of σ1 (Q99720 whole entry): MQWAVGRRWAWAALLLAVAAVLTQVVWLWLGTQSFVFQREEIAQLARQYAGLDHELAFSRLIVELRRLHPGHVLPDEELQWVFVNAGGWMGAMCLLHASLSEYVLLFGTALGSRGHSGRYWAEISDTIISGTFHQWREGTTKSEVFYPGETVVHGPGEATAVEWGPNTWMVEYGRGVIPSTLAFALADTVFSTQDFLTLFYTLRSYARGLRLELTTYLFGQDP

`COc1ccc(-c2cccc(C(=O)N(C)Cc3ccncc3)c2)cc1S(=O)(=O)Nc1cncc(NCCNC(=O)c2cccc(C)c2)c1` [Compound 61]: the values for the Emax on human OX2 receptor and at OX1R were 99% and 101%, respectively. The solubility – broadly, the dissolved amount per volume that the medium holds – in data set [1] is over 400 µM. The “metabolic stability in rat liver microsomes, in words” value in data set [2] (listed as RTIOXA-47) is listed as “significantly improved half-life; also recorded: significantly improved metabolic stability”. Further, the half-life in data set [2] was 39.7 min; in “Half-life in vivo” it was 318 min.

As for `COc1ccc(-c2cccc(C(=O)N(C)C)c2)cc1S(=O)(=O)Nc1cccc(NCCNC(=O)c2ccccc2N(C)C)c1` [Compound 1, reference compound], the Emax – broadly, the maximal effect, on the per cent scale that the assay sets – at human OX2 receptor worked out at 94%. This molecule also had a solubility in data set [1] of over 400 µM. In data set [2], the “metabolic stability in rat liver microsomes, in words” value is given as “modest metabolic stability” and the half-life is under 1 min. The affinity on σ1, expressed as Ki, was 2500 nM. In addition, in the data set with wild-type mice, the body temperature result was “without affecting body temperature”. On OX1R, the Emax amounted to 55%.
